The text below walks through data of US20250122223A1, “HETEROCYCLIC COMPOUNDS AS UBIQUITIN SPECIFIC PROTEASE 7 INHIBITORS” (ALMAC DISCOVERY LIMITED, priority 2022, published 2025).

Molecules are shown by their SMILES. pIC50: −log10 of the molar value. In brackets after ≈: the same amount, converted by molar mass.

The target in series [1] is T1, USP7 (Homo sapiens (Human), UniProt Q93009). Description: USP7 fluorescence polarisation (FP) assay with ubiquitin-Lys-TAMRA substrate. In kind it is biochemical.
Series [2] concerns the target T1, USP7. The series can be described thus: Target engagement assay-HTRF, competition with HA-Ub-VPS probe in HEK293 cells stably expressing Flag-tagged USP7. In kind it is cell-based. Particulars: HEK293 stable clone M6C5, 2 h treatment; read-out: Cellular target engagement: HEK293 Stable clone M6C5 USP7 IC50. How it is done: HEK293 cells stably expressing Flag-tagged USP7 were treated with vehicle (DMSO) or compound (using 50 μM starting concentration and 11 dp using 1:3 serial dilution) for 2 h and subsequently lysed on ice and homogenised. Cell lysate and HA-Ub-VPS probe was then added to a white flat bottomed 384 well plate (Greiner) to a total volume of 10 μL and incubated for 40 min. 10 μL of D2 and Tb detection antibodies were subsequently added to give a final assay volume of 20 μL. Following incubation, HTRF were measured using a Pherastar FSX (BMG Labtech) exciting at 337 nm and measuring the emission at 620/665 nm. The HTRF ratiometric signal was derived and subsequently normalised to the lysate only controls. Data were plotted and fitted, and the concentrations resulting in 50% inhibition (IC50) were calculated using the non-linear regression curve fitting model using GraphPad Prism. IC50 values for the inhibitors of the invention are compiled in Table 1 above and represent the average of at least duplicate experiments.

Series [3] can be described thus: Kinetic solubility in PBS buffer. The series is classed as physicochemical. Particulars: aqueous buffer, kinetic from dmso stock; PBS buffer pH 7.4. The protocol: Test compounds (5 μL; 10 mM DMSO stock) were added to 245 μL of PBS buffer pH 7.4 (Dulbecco A) in a Millipore MultiScreen® Solubility Filter plate and mixed at 300 rpm at room temperature on a plate shaker for 90 minutes. Meanwhile 5-points calibration curves for each compound were established in a mixture of acetonitrile/PBS buffer (top concentration 200 μM). After filtration and matrix match, the calibration and assay plates were analysed on a BMG Labtech CLARIOstar plate reader (240-400 nm). Final concentration of the test compound in the filtrate was calculated using the slope of the calibration curve.

Series [4] can be described thus: CLint/CLhep estimates using liver microsomes (human). The series is classed as in vitro ADME. How it is done: (§1) Test compounds (final concentration=1 μM; final DMSO concentration=0.1%) were incubated in 0.1M phosphate buffer pH 7.4 with liver microsomes (human, mouse, rat or dog; 0.5 mg of protein/mL) at 37° C. Reactions were started by addition of NADPH in 0.1M phosphate buffer pH 7.4 (final concentration 1 mM). 40 μL aliquots were removed at 3, 6, 10, 15, 20, 30, 40 and 50 minutes. Reactions were quenched in 80 μL of ice-cold methanol. Samples were subsequently frozen overnight then centrifuged at 3500 rpm for 20 minutes at 4° C. The supernatants were removed and transferred into analytical plates and analysed by LC/MS/MS.
(§2) All samples were analysed on a Waters Acquity I-Class coupled to a Waters Xevo TQD mass spectrometer. A Waters BEH C18 2.1×50 mm 1.7 μm column was used and mobile phases were water and methanol containing 0.1% formic acid as modifier. Analysis was by multiple reaction monitoring and conditions were optimised for each test compound.
(§3) From a plot of In peak area against time, the gradient of the line is determined.
(§4) Subsequently, half-life and intrinsic clearance are calculated using the equations below: […]
(§5) The CLhep was calculated as follows: […]
(§6) Where CLint (mL/min/kg) is the intrinsic clearance scaled to a whole liver and Qh is hepatic liver blood flow.

The nature of series [5]: CLint/CLhep estimates using liver microsomes (rat). In kind it is in vitro ADME. The protocol:
as §1, §2, §3, §4, §5, §6

Series [6] in a line: CLint/CLhep estimates using liver microsomes (mouse). The series is classed as in vitro ADME. How it is done: as §1, §2, §3, §4, §5, §6
Series [7] is described as follows: CLint/CLhep estimates using liver microsomes (dog). In kind it is in vitro ADME. How it is done:
as §1, §2, §3, §4, §5, §6

A short description of series [8]: Pharmacokinetic (PK) parameters in mouse. In kind it is in vivo, BALB/c mouse.

T1 sequence (Q93009 whole entry): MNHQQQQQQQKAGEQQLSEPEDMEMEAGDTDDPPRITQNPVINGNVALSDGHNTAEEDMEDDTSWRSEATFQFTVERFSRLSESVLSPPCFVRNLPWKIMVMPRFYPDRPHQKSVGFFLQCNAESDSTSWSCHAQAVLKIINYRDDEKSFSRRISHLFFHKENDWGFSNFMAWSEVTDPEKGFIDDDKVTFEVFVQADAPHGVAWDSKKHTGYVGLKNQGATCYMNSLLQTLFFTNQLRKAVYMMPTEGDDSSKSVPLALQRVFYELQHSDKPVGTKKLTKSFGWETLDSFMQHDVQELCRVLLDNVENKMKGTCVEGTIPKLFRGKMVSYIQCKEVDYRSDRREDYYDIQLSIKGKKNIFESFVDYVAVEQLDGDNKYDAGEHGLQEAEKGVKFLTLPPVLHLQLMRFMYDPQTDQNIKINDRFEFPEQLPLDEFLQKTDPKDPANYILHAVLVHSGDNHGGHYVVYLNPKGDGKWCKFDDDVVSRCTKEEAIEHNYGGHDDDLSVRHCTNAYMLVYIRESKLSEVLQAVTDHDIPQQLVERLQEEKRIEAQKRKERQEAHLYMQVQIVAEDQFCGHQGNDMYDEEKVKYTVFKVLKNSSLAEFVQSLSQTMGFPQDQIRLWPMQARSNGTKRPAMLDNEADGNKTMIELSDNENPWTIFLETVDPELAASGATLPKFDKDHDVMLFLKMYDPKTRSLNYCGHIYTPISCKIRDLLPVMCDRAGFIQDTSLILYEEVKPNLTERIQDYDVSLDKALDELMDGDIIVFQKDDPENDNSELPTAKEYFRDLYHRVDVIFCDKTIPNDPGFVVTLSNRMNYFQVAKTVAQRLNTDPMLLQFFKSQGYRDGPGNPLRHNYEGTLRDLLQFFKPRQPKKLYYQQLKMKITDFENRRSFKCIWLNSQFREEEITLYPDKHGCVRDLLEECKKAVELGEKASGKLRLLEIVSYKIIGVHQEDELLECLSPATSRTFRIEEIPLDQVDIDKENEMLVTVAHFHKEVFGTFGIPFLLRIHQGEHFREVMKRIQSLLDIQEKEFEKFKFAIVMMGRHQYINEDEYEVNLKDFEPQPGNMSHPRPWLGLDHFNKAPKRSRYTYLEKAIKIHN

In the case of `C[C@H]1CN[C@H](c2ccc(-n3c(Cl)cc4c(=O)n(CC5(O)CCN(C(=O)c6ccc(F)cc6)CC5)cnc43)cc2)CO1` [Example 21, 6-Chloro-3-((1-(4-fluorobenzoyl)-4-hydroxypiperidin-4-yl)methyl)-7-(4-((3R,6S)-6-methylmorpholin-3-yl)phenyl)-3,7-dihydro-4H-pyrrolo[2,3-d]pyrimidin-4-one], the pIC50 in series [1] (average of at least duplicate experiments, read-out: Biochemical: USP7 IC50) is 6.96; in series [1] (biochemical inhibition, read-out: USP7 IC50 activity (Table 3a, classes)), 6.60 to 7.00; in series [2] it was 6.74. Also, the IC50 in series [1] (biochemical inhibition, unit not given in Table 3b (Table 1 and key of Table 3a use μM), read-out: USP7 IC50 activity (Table 3b)) turned out to be 0.108 µM. Further, the solubility (kinetic) at 90 min in series [3] amounted to 203 µM (≈ 118 µg/mL). For the same compound, the “Liver Microsomes: CLhep Human” value in series [4] is 3.2 mL/min/kg. For the same compound, in series [5], the “Liver Microsomes: CLhep Rat” value is given as 6.5 mL/min/kg. The “Liver Microsomes: CLhep Mouse” value in series [6] is on record as 19.1 mL/min/kg. In addition, the “Liver Microsomes: CLhep Dog” value in series [7] was 4.5 mL/min/kg. For the same compound, in series [8] (BALB/c mouse IV 1 mg/kg), the CLb was 35.1 mL/min/kg. Besides, in series [8] (BALB/c mouse PO 3 mg/kg), the F amounted to 40.3%. Moreover, the AUC(0-inf) in series [8] (blood, BALB/c mouse IV 1 mg/kg) came to 479 ng·h/mL; in series [8] (blood, BALB/c mouse PO 3 mg/kg), 593 ng·h/mL. The same compound gave a half-life in series [8] (blood, BALB/c mouse IV 1 mg/kg) of 2.09 h. Moreover, the Vd in series [8] (blood, BALB/c mouse IV 1 mg/kg, read-out: Vss) was 3.89 L/kg.
